Source: ChEMBL document CHEMBL5505983, “Design, synthesis, and molecular modeling studies of novel 2-quinolone-1,2,3-triazole-α-aminophosphonates hybrids as dual antiviral and antibacterial agents” (Eur J Med Chem, 2024)
Converted amounts (≈) assume the structure as drawn.

Columns and labels:
[1] = Cytotoxicity against African green monkey Vero A cells; format: toxicity, cell-based; settings: chlorocebus sabaeus
Chikungunya virus = test: Antiviral activity against CHIKV infected in African green monkey Vero A cells assessed as inhibition of cytopathic effect by microscopy based analysis; format: functional, organism-based
Escherichia coli [2] = test: Ratio of MBC to MIC for Escherichia coli CIP 53154; format: functional
Escherichia coli [3] = test: Bactericidal activity against Escherichia coli CIP 53154; format: functional
Escherichia coli [4] = test: Antibacterial activity against Escherichia coli CIP 53154 assessed as reduction in bacterial growth by micro-broth dilution method; format: functional
Enterovirus A71 = test: Antiviral activity against human EV71 infected in human RD cells assessed as inhibition of cytopathic effect by microscopy based analysis; format: functional, organism-based; settings: Enterovirus A
[5] = Cytotoxicity against human Huh-7 cells; format: toxicity, cell-based
Pseudomonas aeruginosa [6] = test: Antibacterial activity against Pseudomonas aeruginosa CIP A22 assessed as reduction in bacterial growth by micro-broth dilution method; format: functional
Staphylococcus aureus [7] = test: Ratio of MBC to MIC for Staphylococcus aureus CIP 54127; format: functional
[8] = Cytotoxicity against human HeLa-RH cells; format: toxicity, cell-based
[9] = Cytotoxicity against African green monkey Vero E6 cells; format: toxicity, cell-based, Vero C1008; settings: chlorocebus sabaeus
Human rhinovirus sp. [10] = test: Antiviral activity against Human rhinovirus B14 infected in human HeLa-RH cells assessed as inhibition of cytopathic effect by microscopy based analysis; format: functional, organism-based
Staphylococcus aureus [11] = test: Bactericidal activity against Staphylococcus aureus CIP 54127; format: functional
Staphylococcus aureus [12] = test: Antibacterial activity against Staphylococcus aureus CIP 54127 assessed as reduction in bacterial growth by micro-broth dilution method; format: functional
Enterococcus faecalis [13] = test: Antibacterial activity against Enterococcus faecalis assessed as reduction in bacterial growth by micro-broth dilution method; format: functional
Human rhinovirus sp. [14] = test: Antiviral activity against Human rhinovirus A2 infected in human HeLa-RH cells assessed as inhibition of cytopathic effect by microscopy based analysis; format: functional, organism-based
Pseudomonas aeruginosa [15] = test: Ratio of MBC to MIC for Pseudomonas aeruginosa CIP A22; format: functional
[16] = Cytotoxicity against human RD cells; format: toxicity, cell-based
Pseudomonas aeruginosa [17] = test: Bactericidal activity against Pseudomonas aeruginosa CIP A22; format: functional
Yellow fever virus = test: Antiviral activity against Yellow fever virus infected in human Huh-7 cells assessed as inhibition of cytopathic effect by microscopy based analysis; format: functional, organism-based
Enterococcus faecalis [18] = test: Ratio of MBC to MIC for Enterococcus faecalis; format: functional
Enterococcus faecalis [19] = test: Bactericidal activity against Enterococcus faecalis; format: functional
Zika virus = test: Antiviral activity against Zika virus infected in african green monkey Vero E6 cells assessed as inhibition of cytopathic effect by microscopy based analysis; format: functional, organism-based; settings: Vero C1008

SMILES | CC50 [1] | IC50 (Chikungunya virus) | Ratio (Escherichia coli [2]) | MBC (Escherichia coli [3]) | MIC (Escherichia coli [4]) | IC50 (Enterovirus A71) | CC50 [5] | MIC (Pseudomonas aeruginosa [6]) | Ratio (Staphylococcus aureus [7]) | CC50 [8] | CC50 [9] | IC50 (Human rhinovirus sp. [10]) | MBC (Staphylococcus aureus [11]) | MIC (Staphylococcus aureus [12]) | MIC (Enterococcus faecalis [13]) | IC50 (Human rhinovirus sp. [14]) | Ratio (Pseudomonas aeruginosa [15]) | MBC (Pseudomonas aeruginosa [17]) | Ratio (Enterococcus faecalis [18]) | MBC (Enterococcus faecalis [19]) | further results
CCN(CC)CCCC(C)Nc1ccnc2cc(Cl)ccc12 (stereo unspecified) [CHLOROQUINE] | 89 µM | 11 µM | – | – | – | – | – | – | – | – | – | – | – | – | – | – | – | – | – | – | –
CCOP(=O)(OCC)C(Nc1ccc(C)cc1)c1cc(Cn2cc(Cn3c(=O)cc(C)c4ccccc43)nn2)ccc1O (stereo unspecified) | > 100 µM | > 100 µM | 1 | 520 µM (≈ 313 µg/mL) | 520 µM (≈ 313 µg/mL) | > 100 µM | 27.9 µM | 4160 µM (≈ 2500 µg/mL) | 1 | > 100 µM | > 100 µM | > 100 µM | 520 µM (≈ 313 µg/mL) | 520 µM (≈ 313 µg/mL) | 70 µM (≈ 42.1 µg/mL) | > 3.7 µM | 2 | 4160 µM (≈ 2500 µg/mL) | 1 | 70 µM (≈ 42.1 µg/mL) | CC50 [16]: > 100 µM; IC50 (Yellow fever virus): > 100 µM; IC50 (Zika virus): > 100 µM
CO[C@H]1/C=C/O[C@@]2(C)Oc3c(C)c(O)c4c(O)c(c(/C=N/N5CCN(C)CC5)c(O)c4c3C2=O)NC(=O)/C(C)=C\C=C\[C@H](C)[C@H](O)[C@@H](C)[C@@H](O)[C@@H](C)[C@H](OC(C)=O)[C@@H]1C [RIFAMPIN] | – | – | 2.03 | 610 µM (≈ 502 µg/mL) | 300 µM (≈ 247 µg/mL) | – | – | 610 µM (≈ 502 µg/mL) | 1.88 | – | – | – | 150 µM (≈ 123 µg/mL) | 80 µM (≈ 65.8 µg/mL) | 300 µM (≈ 247 µg/mL) | – | 2.03 | 610 µM (≈ 502 µg/mL) | 1 | 300 µM (≈ 247 µg/mL) | –
CCOP(=O)(OCC)C(Nc1ccc(C)cc1)c1cc(Cn2cc(Cn3c(=O)cc(C)c4cc(F)ccc43)nn2)ccc1O (stereo unspecified) | > 33.3 µM | > 100 µM | 1 | 930 µM (≈ 576 µg/mL) | 930 µM (≈ 576 µg/mL) | > 100 µM | > 100 µM | 7350 µM (≈ 4550 µg/mL) | 1 | > 100 µM | > 100 µM | > 100 µM | 240 µM (≈ 149 µg/mL) | 240 µM (≈ 149 µg/mL) | 60 µM (≈ 37.2 µg/mL) | > 11.1 µM | 2 | 7350 µM (≈ 4550 µg/mL) | 1 | 60 µM (≈ 37.2 µg/mL) | CC50 [16]: > 100 µM; IC50 (Yellow fever virus): > 100 µM; IC50 (Zika virus): > 100 µM
CCOP(=O)(OCC)C(Nc1ccccc1OC)c1cc(Cn2cc(Cn3c(=O)cc(C)c4ccccc43)nn2)ccc1O (stereo unspecified) | 77.2 µM | > 100 µM | 2.04 | 1020 µM (≈ 630 µg/mL) | 500 µM (≈ 309 µg/mL) | > 100 µM | 51.8 µM | 1020 µM (≈ 630 µg/mL) | 1.92 | > 33.3 µM | > 33.3 µM | > 100 µM | 500 µM (≈ 309 µg/mL) | 260 µM (≈ 161 µg/mL) | 2020 µM (≈ 1250 µg/mL) | > 1.23 µM | 1 | 1020 µM (≈ 630 µg/mL) | 1 | 2020 µM (≈ 1250 µg/mL) | CC50 [16]: > 100 µM; IC50 (Yellow fever virus): > 100 µM; IC50 (Zika virus): > 100 µM
CCOP(=O)(OCC)C(Nc1ccc(F)cc1)c1cc(Cn2cc(Cn3c(=O)cc(C)c4cc(F)ccc43)nn2)ccc1O (stereo unspecified) | > 100 µM | > 100 µM | 1 | 1010 µM (≈ 630 µg/mL) | 1010 µM (≈ 630 µg/mL) | > 100 µM | 29.3 µM | 8020 µM (≈ 5000 µg/mL) | 1 | > 100 µM | > 100 µM | > 100 µM | 500 µM (≈ 312 µg/mL) | 500 µM (≈ 312 µg/mL) | 130 µM (≈ 81.1 µg/mL) | > 3.7 µM | 2 | 8020 µM (≈ 5000 µg/mL) | 1 | 130 µM (≈ 81.1 µg/mL) | CC50 [16]: > 100 µM; IC50 (Yellow fever virus): > 100 µM; IC50 (Zika virus): > 100 µM
